From patent US20260297060A1, “COMPOUNDS FOR THE DEGRADATION OF MUTANT BRAF” (C4 THERAPEUTICS, INC., priority 2023, published 2026)

Test system: A375 human melanoma xenografts
Assay: In vivo therapeutic efficacy in A375 human melanoma xenografts (tumor volume, T/C, TGI), Example 14
Design: species or system human tumor in female BALB/c nude mice
Details: for Tumor volume: 100 mg/kg p.o. QD x 21 days
Method: Agents were tested in the A375 human melanoma xenografts. Compound 26 and Compound 141 were administered to BALB/c nude mice bearing A375 tumors from PG-DO and dosed via PO twice a day (BID) or third a day (TIP) or dosed P daily (QD) from PG-D. Dabrafenib was administered to BALB/c nude mice bearing A375 tumors from PG-D1 and dosed via P daily (QD). Compound 26 was dosed at 1.5 mg/kg (QD), 2 mg/kg (TID), 3 mg/kg (BID), 6 mg/kg (QD) and 10 mg/kg (BID) for 21 days. Compound 141 was dosed at 0.75 mg/kg (BID), 1 mg/kg (TID), 1.5 mg/kg (BID), 3 mg/kg (QD) and 5 mg/kg (BID) for 21 days. Dabrafenib was dosed at 100 mg/kg for 21 days. This study was non-GLP.
One hundred and thirty-eight female BALB/c nude Mus Musculus mice procured from Shanghai Lingchang Biological Science and Technology Co., LTD between the ages of six to eight weeks and with body weight between eighteen and twenty-two grams were used for the study. A spare mouse was also procured.
The A375 tumor cells were maintained in vitro in DMEM medium supplemented with 10% fetal bovine serum and 1% Penicillin-Streptomycin at 37° C. in an atmosphere of 5% CO2 in air. The tumor cells were routinely sub-cultured twice weekly. The cells growing in an exponential growth phase were harvested and counted for tumor inoculation.
Each mouse was inoculated subcutaneously at the right flank with A375 cells (5×10^6) in 0.2 mL of PBS supplemented with Matrigel (PBS: Matrigel=1:1) for tumor development. Animals were grouped for efficacy study on day 15 after tumor inoculation when the average tumor volume reached 220 mm^3. The test articles administration and the animal numbers in each group are shown in the above experimental Table 75.
At the time of routine monitoring, the animals were checked daily for any effects of tumor growth and treatments on normal behavior such as mobility, food and water consumption (by looking only), body weight gain/loss (body weights were measured twice weekly), eye/hair matting and any other abnormal effect as stated in the protocol. Death and observed clinical signs were recorded on the basis of the numbers of animals within each subset.
Prior to the onset of drug treatment, mice were measured for tumor size in two dimensions using a caliper, and the tumor volume (mm^3) was calculated using formula V=0.5 a×b^2 where a and b are the long and short diameters of the tumor in mm, respectively. Mice were randomized into different treatment groups based on the tumor volume.
The major endpoint was to see if the tumor growth could be delayed or mice could be cured. The tumor size was then used for calculations of T/C value. The T/C value (in percent) is an indication of antitumor effectiveness; T and C are the mean volumes of the treated and control groups, respectively on specified day.
TGI was calculated for each group using the formula: TGI (%)=[1−(Ti−T0)/(Ci−C0)]×100; Ti is the average tumor volume of a treatment group on a given day, T0 is the average tumor volume of the treatment group on the day of treatment start, Ci is the average tumor volume of the vehicle control group on the same day with Ti, and C0 is the average tumor volume of the vehicle group on the day of treatment start.
A one-way ANOVA followed by Dunnett's multiple comparison test was performed to compare tumor volume among vehicle group (Group 1) and treatment groups (Group 2-Group 12). All data were analyzed using GraphPad Prism, ns indicates p>0.05, * indicates p<0.05, ** indicates p<0.01, *** indicates p<0.001 and **** indicates p<0.0001.
Tumor growth inhibition of Compound 26, Compound 141 and dabrafenib in the treatment of female BALB/c nude mice bearing A375 xenografts was calculated based on tumor volume measured on […]. TGI and T/C were calculated respectively and the data are detailed in Table 82.

[1] = 100 mg/kg, p.o., QD × 21 days, PG-D21

CC(C)(C)c1nc(-c2cccc(NS(=O)(=O)c3c(F)cccc3F)c2F)c(-c2ccnc(N)n2)s1 [Dabrafenib, dabrafenib, reference compound]
Tumor volume (day 0, mean ± SEM): 220 ± 15 mm^3
Tumor volume (day 4, mean ± SEM): 367 ± 24 mm^3
Tumor volume (day 7, mean ± SEM): 421 ± 28 mm^3
Tumor volume (day 11, mean ± SEM): 560 ± 38 mm^3
Tumor volume (day 14, mean ± SEM): 756 ± 54 mm^3
Tumor volume (day 18, mean ± SEM): 1031 ± 79 mm^3
Tumor volume (day 21, mean ± SEM): 1095 ± 86 mm^3
Tumor volume (day 25 (dosing-free regrowth), mean ± SEM): 1007 ± 137 mm^3
Tumor volume (day 28 (dosing-free regrowth), mean ± SEM): 1366 ± 209 mm^3
Tumor volume (day 32 (dosing-free regrowth), mean ± SEM): 1679 ± 323 mm^3
Tumor volume (day 35 (dosing-free regrowth), mean ± SEM): 1711 ± 245 mm^3
Tumor volume (day 39 (dosing-free regrowth), mean ± SEM): 2116 ± 279 mm^3
Tumor volume (day 42 (dosing-free regrowth), mean ± SEM): 2634 ± 337 mm^3
Tumor volume (day 46 (dosing-free regrowth), mean ± SEM): 2535 ± 321 mm^3
Tumor volume (day 49 (dosing-free regrowth), mean ± SEM): 3163 ± 478 mm^3
Tumor volume (day 53 (dosing-free regrowth)): 3001 mm^3
Tumor Size on PG-D21 (Mean ± SEM) (100 mg/kg p.o. QD × 21 days): 1095 ± 86 mm^3
T/C [1]: 58.1%
TGI [1]: 47.4%
